Assay results reported in the METLIN SMRT retention time set (Domingo-Almenara et al. 2019).

assay: gradient 5% acetonitrile 3 min, to 50% in 2 min, to 85% in 15 min, held 3 min, 100 µL/min; details: column: Zorbax Extend-C18 2.1 x 50 mm; eluents: water / acetonitrile, 0.1% formic acid
Summary of the method: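 A Zorbax Extend-C18 column (2.1 × 50 mm, 1.8 μm) run at 100 μL/min with water and acetonitrile, both containing 0.1% formic acid, separated mixtures of ~100 pure standards. The HPLC was coupled to a quadrupole time-of-flight mass spectrometer operated in positive and negative ionization mode, with dead and dwell volumes of 40 μL and 900 μL. Each retention time was taken from a computationally picked adduct peak that was then manually inspected.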

Compound | RP-LC retention time
Cc1cc(C)nc(NS(=O)(=O)c2ccc(NC(=O)NC3CCCCC3)cc2)n1 | 686 s
O=C(NCCc1csc(-c2cccs2)n1)C1CCN(S(=O)(=O)c2cccc(Cl)c2)CC1 | 975 s
CC(O)CCC(=O)NCCc1nc2ccccc2n1Cc1ccccc1F (centres undefined) | 566 s
CCCCc1ccc(NC(=O)Cn2cccc2-c2nc(-c3ccc4c(c3)OCO4)no2)cc1 | 1260 s
Cn1nc(-c2nc(C3CC3)no2)c2c1CCN(S(=O)(=O)c1ccc(F)cc1)C2 | 925 s
COc1cccc(-c2ccc(=O)n(Cc3nc(-c4cccc(Cl)c4)no3)n2)c1 | 1080 s
CCCCNC(=O)C1CCN(C(=O)Nc2ccc(NC(=O)Nc3ccccc3)cc2)CC1 | 729 s
CCN1c2ccc(C)cc2C(=O)NC12CCN(C(=O)c1cccc(Cl)c1)CC2 | 603 s
Cc1cc(=O)n(CC(=O)N(C)C2CCCCC2)c(N2CCOCC2)n1 | 656 s
COCC(C)NC(=O)c1ccc2c(c1)CCCN2S(C)(=O)=O (centres undefined) | 679 s
O=C(NC1CC1)c1ccc(OCC2CCCN2C(=O)c2c(F)cccc2F)cc1 (centres undefined) | 741 s
O=C(Nc1ccc2ncsc2c1)c1cc(Cl)sc1Cl | 852 s
COc1cccc(NC(=O)C2CCN(C(=O)C3CC(=O)N(c4ccccc4)C3)CC2)c1 (centres undefined) | 714 s
CC(=O)Nc1nc(N2CCC(C(=O)NCc3cccnc3)CC2)sc1C(=O)N1CCCC1 | 581 s
COc1cccc(Cn2nnc(C(=O)O)c2C(C)C)c1 | 694 s
CCC(=O)Nc1ccc(-n2cnc(C(=O)NCC(C)C)c2)nc1 | 667 s
O=C(NCc1ccccc1Cl)C1CCc2nc(N3CCOCC3)ncc2C1 (centres undefined) | 726 s
CCCN1C(=O)c2c(C(=O)NCc3ccc(N(C)C)cc3)ncn2CC1(C)C(=O)NCCC(C)C (centres undefined) | 649 s
CN1CCN(CCNC(=O)CSCc2nc3cccnc3n2C2CCCCC2)CC1 | 600 s
CC1Cc2cc(-c3cc(CC(=O)Nc4nc5ccccc5[nH]4)no3)ccc2O1 (centres undefined) | 657 s
Cc1ccc(CNC(=O)CN2CCc3ccccc3C2C(=O)N2CCC(C)CC2)cc1C (centres undefined) | 1030 s
COc1ccccc1N1CCN(S(=O)(=O)c2ccc(F)cc2C)CC1 | 1010 s
O=C(CN1CCN(C(=O)c2cnn3c(-c4ccc5c(c4)OCO5)ccnc23)CC1)N1CCCCC1 | 611 s

Compound | RP-LC retention time
COCCCNC(=O)C1(C)Cn2nc(-c3ccccc3)cc2C(=O)N1Cc1cccc(OC)c1 (centres undefined) | 887 s
CCOC(=O)CNC(=O)N1CCN(Cc2nc3cccnc3n2-c2cccc(F)c2)CC1 | 612 s
CCNc1cc(C)nc(N2CCN(C(=O)c3ccc(-c4ccccc4)cc3)CC2)n1 | 746 s
CCNS(=O)(=O)c1cc(-c2nc(C)cs2)n(C)c1C | 792 s
CCOc1ccc(-n2c(N3CCN(CC)CC3)nc3cc(C(=O)OC)ccc3c2=O)cc1 | 683 s
CS(=O)(=O)Nc1ccc(C2(C(=O)NCc3cccs3)CCCCC2)cc1 | 851 s
O=C(NCCc1cnc[nH]1)c1nc(Nc2ccc(F)cc2)c2ccccc2n1 | 589 s
CCN1CCN(C(=O)CSCc2nc3cccnc3n2C2CCCCC2)CC1 | 625 s
COC(=O)c1ccc(NS(=O)(=O)c2cccc(-c3nc(-c4ccc(C)cc4)no3)c2)cc1 | 1190 s
CCc1nc2cc(-c3noc(-c4ccc(C)cc4)n3)ccc2o1 | 1270 s
Cc1ccc(-c2nc3ccccn3c2CCC(=O)Nc2ccc(Br)cc2C)cc1 | 770 s
O=C(NCc1ccco1)N1CCN(c2nc3cccnc3n(Cc3ccccc3)c2=O)CC1 | 935 s
CC(C)(C)c1noc(-c2ccc(-n3cnc(C(=O)N4CCCCC4)c3)nc2)n1 | 742 s
Cc1ccc(-c2noc(-c3cccc(S(=O)(=O)NCc4ccc(C)o4)c3)n2)cc1 | 1170 s
CC(C)NC(=O)C1CCN(c2cnc(N3CCSCC3)nc2)CC1 | 629 s
O=C(c1cccnc1)N1CCC(Oc2cc(N3CCCCC3)ncn2)C1 (centres undefined) | 651 s
COc1ccc(NC(=O)Cn2nc3n(c2=O)CCCCC3)cc1 | 709 s
COc1ccc(CNC(=O)c2ccc3c(=O)n(-c4ccc(F)cc4)c(N4CCCC4)nc3c2)cc1 | 852 s
Cn1c(C(=O)N(CCc2ccccc2)Cc2ccccc2)cc2c(=O)n3ccccc3nc21 | 1030 s
CCc1nc(-c2cc(S(=O)(=O)N3CCC(C(=O)NC4CCCCCCC4)CC3)c(C)s2)no1 | 1130 s
COc1ccc(N2CCN(C(=O)c3cn4nc(Cl)ccc4n3)CC2)cc1 | 714 s
CNC(=O)c1cccc(Nc2c(-c3ccccc3)nc3cnccn23)c1 | 645 s
CC(C)(CO)NCc1ccc(-c2ccc(F)c(Cl)c2)o1 | 644 s

Compound | RP-LC retention time
C=CCNC(=O)C1CCN(C(=O)Nc2ccc(NC(=O)Nc3cccc(F)c3)cc2)CC1 | 706 s
NS(=O)(=O)c1ccc(CCNC(=O)c2cn3cc(Cl)ccc3n2)cc1 | 660 s
CC(=O)c1cc2c(cc1NC(=O)c1ccc(COc3ccccc3)o1)OCO2 | 1080 s
O=C1CCc2cc(NS(=O)(=O)Cc3ccccc3Cl)ccc2N1 | 783 s
Cc1noc(-c2nn(C)c3c2CN(C(=O)Nc2ccccc2Cl)CC3)n1 | 725 s
Cc1nnc2c(=O)n(CC(=O)NC(C)c3ccc(F)cc3)c3cccnc3n12 (centres undefined) | 677 s
CCN1CCN(C(=O)C2CCN(S(=O)(=O)c3ccc4c(c3)NC(=O)CO4)CC2)CC1 | 664 s
Cc1ccc(CNC(=O)c2cc3sc(Cl)cc3n2C)cc1 | 1110 s
O=S(=O)(Nc1nc2ccc(S(=O)(=O)N3CCCC3)cc2s1)c1ccc(F)cc1 | 773 s
O=C([C@@H]1C[C@H](Oc2cccnc2)CN1C(=O)c1ccc2ncccc2c1)N1CCCC1 | 544 s
Cc1ccc2[nH]cc(CCNC(=O)c3cc(-c4cccnc4)nc4ccccc34)c2c1 | 784 s
COc1ccc(-c2nc3cnccn3c2NCCC(=O)Nc2ccc3c(c2)OCCO3)cc1 | 676 s
Cc1ccc(NS(=O)(=O)c2cc(-c3[nH]ncc3C(=O)N3CCCCC3)oc2C)cc1C | 821 s
O=C(Nc1ccc2ncccc2c1)Nc1ccc2ncccc2c1 | 604 s
Cn1c(C2CCN(C(=O)Nc3ccccc3C(F)(F)F)CC2)cc(=O)n2nccc12 | 654 s
CCCn1ccc2sc(C)c(C(=O)NCc3ccc(C)cc3)c2c1=O | 948 s
CC(C)NC(=O)C1CCCN(c2nccn3nc(-c4ccccc4Cl)cc23)C1 (centres undefined) | 806 s
CC(C)n1c(N2CCCN(C(=O)c3ccc(F)c(F)c3)CC2)cc(=O)n(C(C)C)c1=O | 859 s
O=C(CCc1ccccc1)NCCN1CCN(c2ccc(Cl)cc2)CC1 | 619 s
CCOC(=O)C1CCN(C(=O)C2c3ccccc3C(=O)N3CCc4cc(OC)c(OC)cc4C23)CC1 (centres undefined) | 766 s
Cc1ccc(F)c(NC(=O)c2sc(-c3cn(C)c4ncccc34)nc2C)c1 | 874 s
O=C(Nc1ccc(F)cc1Cl)c1cc2n(n1)CCCC2 | 1010 s
O=C(Nc1nccnc1C(=O)NC1CC1)c1ccccc1 | 732 s

Compound | RP-LC retention time
CC(C)c1ccc(S(=O)(=O)N2CCC(C)(C(=O)NCc3ccccc3)CC2)cc1 | 1050 s
COc1ccc(C(=O)N2CCC3(C2)C(=O)Nc2ccccc23)c(OC)c1 (centres undefined) | 655 s
CCCC(=O)N1CCc2c([nH]c3ccccc23)C1c1ccc(OCC)cc1 (centres undefined) | 1140 s
CCn1c(=O)c2ccccc2n(Cc2nc(-c3cc(OC)cc(OC)c3)no2)c1=O | 1000 s
COc1ccccc1CNc1c(-c2ccc(OC(C)C)cc2)nc2ncccn12 | 826 s
CCSc1nc(O)cc(=O)[nH]1 | 628 s
Cc1nc(-c2ccncc2)nc2c1CCC(=O)N2CC1CCCCC1 | 918 s
O=C(NCc1cc(F)cc(F)c1)C1CCN(c2cc(N3CCSCC3)ncn2)CC1 | 679 s
COc1ccc2c(c1)C1(CCN(C(=O)c3cccc(Br)c3)C1)C(=O)N2C (centres undefined) | 845 s
CN1C2CCC1CC(OC(=O)c1cc(Cl)cc(Cl)c1)C2 (centres undefined) | 669 s
CCCN1CC(Oc2ccc(-c3noc(C4CC4)n3)cc2)C1 | 653 s
CCOc1ccccc1C(=O)NCCc1csc(-c2cccnc2)n1 | 668 s
Cc1noc(-c2ccc(NC(=O)c3cccnc3)cc2)n1 | 824 s
COc1ccc(-c2nc(CS(=O)(=O)c3ccc(C)cc3)no2)c(C)c1 | 1010 s
COc1ccc(S(=O)(=O)N2CCc3c(c(CN(C(C)=O)c4ccccc4)nn3C)C2)cc1Cl | 846 s
CCc1ccc(CNC(=O)c2cc3c(=O)n(C)c(=O)n(C)c3s2)cc1 | 830 s
COC(=O)c1cccc(N2C=C(C(=O)N3CCCC3)S(=O)(=O)c3ccc(F)cc32)c1 | 788 s
Cc1cc(SCC(=O)N2CCCc3ccccc32)nc(C)n1 | 722 s
Cc1nc2cccnc2n1C1CCN(C(=O)Nc2ccc(Br)cc2F)CC1 | 671 s
CCS(=O)(=O)NCCc1csc(C)n1 | 572 s
